How the values were obtained:
E. coli MC4100(DE3) = assay: Cell growth (optical density A500) under Tat++ conditions; type: cell-based, Escherichia coli
Method: Fig 4 Effect of Oxidative Phosphorylation Inhibitors on In Vivo Tat Transport and Sensitivity of Fluorescence Detection on Plates. (A) Effect of oxidative phosphorylation inhibitors on cell growth and mCherry fluorescence under Tat^++ conditions. Cells producing spTorA-mCherry-SsrA under Tat^++ conditions were grown at 25°C for 8 h in the presence of the indicated respiratory inhibitors. After overnight incubation at 4°C, optical densities (upper panel; A500) and total mCherry cellular fluorescence intensities (lower panel; EX = 587 nm, EM = 610 nm) were measured (n = 3). Nigericin (N; 50 μM) is a H^+/K^+ exchanger, which collapses the ΔpH gradient. Valinomycin (V; 50 μM) is a K^+ ionophore, which collapses the Δψ. NaSCN (SCN; 50 mM) collapses the Δψ. NaN3 (N3; 0.1%) inhibits the cytochrome bo3 terminal oxidase. (B) Effect of NaSCN concentration on cell density and total mCherry cellular fluorescence. Measurements were made after incubating cells overnight at 4°C (n = 3). (C) Calibration and sensitivity of mCherry fluorescence detection in 384-well plates. Overnight cultures of E. coli MC4100(DE3) cells were diluted to A500 = 0.25, 0.2, 0.15, 0.10 and 0.05, and aliquoted into 384-well plates. The spTorA-mCherry-SsrA and TatABC proteins were induced together or neither were induced, as indicated. The cells were incubated at 25°C for 8 hours, and stored overnight at 4°C. Optical densities (upper panel) and mCherry fluorescence intensities (lower panel) were determined with a BMG Polarstar Omega plate reader (at 500 nm for absorbance; EX = 584 nm, EM = 620 nm for fluorescence). For comparison, the absorbance and fluorescence intensities from purified spTorA-mCherry-H6 (30, 25, 20, 15, 10 and 5 nM) are also shown (n = 3 plates, 16 wells/plate). (D) Simulated hits on 384-well plates. Using the approach described in (C), cells (A500 = 0.15) were grown on plates under the indicated conditions, and then fluorescence intensities were measured. spTorA-mCherry-SsrA was used for conditions II-IV. spTorA-mCherry-H6 was used for a minus SsrA control (I; 100%). The SsrA tag decreased the mCherry fluorescence intensity (II; 63±14%), consistent with a decrease in cytoplasmic mCherry concentration due to SsrA-dependent degradation.
(§1) The plates containing cells and dispersed test compounds were grown with shaking (200 rpm) at 25°C for 8 h. Plates were individually mounted, not stacked, on a hollow plastic platform, allowing adequate air circulation. Following the 8 h incubation, plates were transferred to 4°C for 16 h. Each plate was covered with an empty plate to prevent condensation on the lid. […] Following the incubation, plates were read using a BMG Polarstar Omega plate reader (BMG Labtech, Ortenberg, Germany) to determine optical densities (A500) and mCherry fluorescence intensities (EX = 584 nm, EM = 620 nm).
Supplementary file pone.0149659.s005.tiff: S5 Fig Effect of P. aeruginosa Tat Inhibitors on E. coli Cell Growth and Tat Transport. The concentration-dependent effects of Bay 11–7082 (A) and N-phenylmaleimide (B) on bacterial growth (black) and in vivo Tat transport of spTorA-mCherry-SsrA (red) was determined under Tat^++ conditions (top). An overnight culture of MC4100(DE3) (pTorA-mCherry-SsrA, pTatABC-Duet1) was diluted 1:50 in 10 mL fresh LB broth with appropriate antibiotics and dispensed (2 mL) into 5 tubes, and growth was continued at 37°C with shaking at 200 rpm until A500 ≈ 0.5. The indicated concentrations of the two compounds were added, and the expression of spTorA-mCherry-SsrA and TatABC were induced. Cultures were grown for another 8 h at 25°C. Cell growth was assayed by A500, and cells (1 mL, A500 = 1.0) were fractionated into cytoplasmic (C) and periplasmic (P) fractions as described. Transport of spTorA-mCherry-SsrA was assayed by in-gel fluorescence of mCherry (upper gels) and Western blot analyses (middle gels). […]

[1] = tested on: Escherichia coli Tat pathway; assay: Live cell assay: total mCherry fluorescence of cells producing spTorA-mCherry-SsrA (primary HTS assay); type: cell-based; details: for effect on mCherry fluorescence in culture: nigericin and/or valinomycin, 50 μM each
Text: Having obtained the calibration and validation data described in the previous sections, we next established the protocol for the HTS. Details are provided in the Materials and Methods section. Here, we briefly summarize the assay. A single colony of E. coli strain MC4100(DE3) containing plasmids encoding TatABC and spTorA-mCherry-SsrA was inoculated into LB and grown overnight. The next morning, cells were transferred to fresh media, the production of TatABC and spTorA-mCherry-SsrA was induced, and cultures were aliquoted onto plates with test compounds. NaSCN was included in control wells to simulate a hit. Cells were grown for 8 h, followed by incubation at 4°C overnight, and then read the next day. Setting the total cellular fluorescence obtained with spTorA-mCherry-H6 under Tat^++ conditions to 100%, spTorA-mCherry-SsrA yielded a total cellular fluorescence signal of 63±14%, consistent with SsrA-induced degradation of the mCherry protein. The total cellular fluorescence was further reduced to 36±14% in the presence of 30 mM NaSCN (simulated hit), and to 41±6% in the absence of TatABC, verifying the Δψ- and Tat-dependence of the fluorescence signal (Fig 4D).
A single colony of E. coli strain MC4100(DE3) (pTatABC-DUET1, pTorA-mCherry-SsrA) was inoculated into a 100 mL LB culture supplemented with Ap and Cm and grown at 37°C with shaking (250 rpm) overnight. Cells were harvested by centrifugation at 4,000g for 10 min at room temperature (RT), suspended in 10 mL fresh LB broth supplemented with Ap and Cm, and the optical density (A500) was determined. Simultaneously, 700 mL LB supplemented with 100 mM arabinose, 2 mM IPTG, 100 μg/mL Ap and 68 μg/mL Cm was filter-sterilized (0.22 μm), and then divided into 200 mL (A) and 500 mL (B) portions. Sterile NaSCN (30 mM final; 1.5 mL of 4 M NaSCN) was added to portion A, and an equal ratio of sterile water was added to portion B (3.75 mL). Media and cells were transferred to the HTS facility on ice.
A CyBi-Well vario pipetting workstation (CyBio, Jena, Germany) was used to dispense library compounds and cultures. Library compounds (1 μL) solubilized in DMSO were added to 384-well black, clear-bottomed plates (Greiner Bio-one, Germany) in columns 3 to 22 (320 wells/plate). For controls, DMSO (1 μL) was added to each well in columns 1, 2, […], to achieve DMSO uniformity across the plate. Both portions of LB media were inoculated with E. coli MC4100(DE3) (pTatABC-DUET1, pTorA-mCherry-SsrA) from the concentrated stock to a final A500 = 0.15. The media with 30 mM NaSCN (positive control, or simulated hit) was dispensed into each well of columns 1 and 24 (49 μL each). An equivalent volume of media without NaSCN was dispensed into each well of columns 2 to 23. Columns 2 and 23 lacked NaSCN and test compounds and served as negative controls. The first 12,800 compounds were screened at 5 μM (plates 1–40), and the remaining 38,800 compounds were screened at 20 μM (plates 41–162).
as §1
Supplementary file pone.0149659.s003.tiff: S3 Fig IC50's for Hit Compound 181^JS. (A) The total cellular mCherry fluorescence (live cell assay; n = 1), (B) the in vitro NADH-dependent Tat transport efficiency of pre-SufI (n = 1), and (C) the maximum transmembrane electrical potential gradient (n = 1) were measured for a range of concentrations of compound 181^JS (S2E Fig). (D) SDS-PAGE gel showing in-gel fluorescence data used in (B). […]

[2] = target: E. coli Tat machinery (IMVs containing overproduced TatABC) (Escherichia coli, UniProt P69423+P69425+P69428); details: cited from earlier work; for effect on Tat transport in vitro: 2.5 μM of each of the two ionophores, both added
[3] = nigericin and/or valinomycin, 50 μM each

Sequence of E. coli Tat machinery (IMVs containing overproduced TatABC) (P69423 2-258): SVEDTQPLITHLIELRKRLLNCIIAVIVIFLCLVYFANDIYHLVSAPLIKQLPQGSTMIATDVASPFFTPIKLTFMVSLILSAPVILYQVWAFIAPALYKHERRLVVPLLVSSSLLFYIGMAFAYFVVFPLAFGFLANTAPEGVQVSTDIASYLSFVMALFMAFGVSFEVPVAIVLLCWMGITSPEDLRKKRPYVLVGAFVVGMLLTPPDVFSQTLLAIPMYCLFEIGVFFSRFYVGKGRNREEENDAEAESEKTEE
Sequence of E. coli Tat machinery (IMVs containing overproduced TatABC) (P69425 whole entry): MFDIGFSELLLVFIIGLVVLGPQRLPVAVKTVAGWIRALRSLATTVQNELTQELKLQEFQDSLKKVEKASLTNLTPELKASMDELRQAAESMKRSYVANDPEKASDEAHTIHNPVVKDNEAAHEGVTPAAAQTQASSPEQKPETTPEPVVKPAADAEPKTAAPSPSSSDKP
Sequence of E. coli Tat machinery (IMVs containing overproduced TatABC) (P69428 whole entry): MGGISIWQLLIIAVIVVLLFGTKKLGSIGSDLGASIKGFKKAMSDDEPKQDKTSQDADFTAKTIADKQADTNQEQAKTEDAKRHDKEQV

N#C[S-].[Na+] [NaSCN]
effect on growth of E. coli cultures (E. coli MC4100(DE3); NaSCN 50 mM): without affecting growth | total cellular fluorescence (mCherry) ([1]; 30 mM NaSCN, spTorA-mCherry-H6 under Tat++ = 100%, spTorA-mCherry-SsrA without NaSCN 63±14%): 36±14% | reduction of mCherry fluorescence ([1]; NaSCN 50 mM, Tat++ cells, 25°C 8 h): ~ 40% | concentration sufficient to maximally reduce the mCherry fluorescence signal without affecting cell growth ([1]; dose response, Tat++ cells): 30 mM | effect on in vitro Tat transport ([2]; NaSCN alone): completely inhibits

[N-]=[N+]=[N-].[Na+] [Sodium azide]
effect on cell growth (E. coli MC4100(DE3); NaN3 0.1%): inhibited cell growth | effect on mCherry fluorescence signal ([1]; NaN3 0.1%): decreased the mCherry fluorescence signal

CO[C@@H]1C[C@@H](C[C@H]2CC[C@H](C)[C@H]([C@@H](C)C(=O)O)O2)O[C@]2(O[C@](C)([C@H]3CC[C@@](C)([C@@H]4O[C@@H]([C@H]5O[C@@](O)(CO)[C@H](C)C[C@@H]5C)C[C@@H]4C)O3)C[C@H]2C)[C@@H]1C [nigericin]
effect on cell growth (E. coli MC4100(DE3); [3]): did not affect | effect on mCherry fluorescence in culture [1]: did not affect | effect on Tat transport in vitro [2]: completely block

CC(C)[C@@H]1NC(=O)[C@H](C)OC(=O)[C@@H](C(C)C)NC(=O)[C@@H](C(C)C)OC(=O)[C@H](C(C)C)NC(=O)[C@H](C)OC(=O)[C@@H](C(C)C)NC(=O)[C@@H](C(C)C)OC(=O)[C@H](C(C)C)NC(=O)[C@H](C)OC(=O)[C@@H](C(C)C)NC(=O)[C@@H](C(C)C)OC1=O [valinomycin]
effect on cell growth (E. coli MC4100(DE3); [3]): did not affect | effect on mCherry fluorescence in culture [1]: did not affect | effect on Tat transport in vitro [2]: completely block

From publication PMC4764201, “High Throughput Screen for Escherichia coli Twin Arginine Translocation (Tat) Inhibitors” (PLoS ONE, 2016)
